Where two headings read alike, the source gives them in different places.
Assays:
THRα = THRα (Homo sapiens (Human), UniProt P10827); assay: GeneBLAzer TR alpha-UAS-bla HEK 293T cell-based agonist assay; details: TR alpha-UAS-bla HEK 293T cells; for EC50: 22 hours incubation; for THRα maximum agnostic capability: T3 as positive control
Experimental: When a compound enters the cell and binds to THR, the receptor binds to the DNA binding region to form a complete GAL4 dimer that utilizes the GAL4-UAS system to activate β-lactamase expression, which then decomposes the substrate CCF4-AM (coumarin).
The LiveBLAzer™M-FRET B/G (CCF4-AM) substrate was added to the cell plate and incubated for 2 hours at room temperature, shielded from light. […] By detecting the ratio of the two fluorescences (460 nm/530 nm), the EC50 of the compound was calculated using Graphpad Prism software. […] The Z-factor (greater than 0.5) is calculated to monitor the stability of each experiment.

CYP1A2 = CYP1A2 (Homo sapiens (Human), UniProt P05177); type: in vitro ADME; details: microsomes
Sequence of CYP1A2 (P05177 whole entry): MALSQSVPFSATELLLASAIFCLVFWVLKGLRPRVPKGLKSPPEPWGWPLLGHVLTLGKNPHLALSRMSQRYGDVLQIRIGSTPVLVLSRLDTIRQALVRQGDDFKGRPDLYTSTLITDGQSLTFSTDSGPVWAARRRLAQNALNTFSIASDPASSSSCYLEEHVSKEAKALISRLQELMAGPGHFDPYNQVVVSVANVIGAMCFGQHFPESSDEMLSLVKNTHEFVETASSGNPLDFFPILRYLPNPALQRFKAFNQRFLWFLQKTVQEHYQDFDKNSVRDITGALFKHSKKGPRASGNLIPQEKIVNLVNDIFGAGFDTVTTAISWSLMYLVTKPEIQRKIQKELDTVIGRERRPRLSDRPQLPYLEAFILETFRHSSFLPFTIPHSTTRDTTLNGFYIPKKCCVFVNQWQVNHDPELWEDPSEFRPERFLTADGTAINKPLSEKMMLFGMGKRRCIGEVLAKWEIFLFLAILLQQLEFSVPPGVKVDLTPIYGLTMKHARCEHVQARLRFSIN
Experimental: (§1) To determine the inhibitory effect of the test compound WX001 on the activity of human liver microsomal cytochrome P450 isoenzymes (CYP1A2, CYP2C9, CYP2C19, CYP2D6, and CYP3A4). First, the test compound (10.0 mM) was diluted to prepare a working solution (100×the final concentration) with a concentration of 1.00 mM. Simultaneously, working solutions were respectively prepared for positive inhibitors of the P450 isoenzymes (CYP1A2, CYP2C9, CYP2C19, CYP2D6, CYP3A4 (with midazolam as a probe substrate), and CYP3A4 (with testosterone as a probe substrate)) and specific probe substrates thereof. Human liver microsomes, stored in a refrigerator at a temperature lower than −60° C., were thawed on ice, and once fully dissolved, were diluted with PB to prepare a working solution of a specific concentration (0.127 mg/mL). 20.0 μL of probe substrate was added to the reaction plate (20.0 μL of PB was added to the Blank wells), followed by the addition of 158 μL of human liver microsomal working solution to the reaction plate. The reaction plate was then placed on ice for later use. Then, 2.00 μL of the test compound (N=1) and specific inhibitors (N=2) were added to the corresponding wells. […] Lastly, the plate was sealed, shaken to ensure the content was thoroughly mixed, and analyzed by LC/MS/MS.

CYP2C9 = CYP2C9 (Homo sapiens (Human), UniProt P11712); assay: Inhibition of human liver microsomal cytochrome P450 isoenzyme CYP2C9; type: in vitro ADME; details: human liver microsomes
Sequence of CYP2C9 (P11712 whole entry): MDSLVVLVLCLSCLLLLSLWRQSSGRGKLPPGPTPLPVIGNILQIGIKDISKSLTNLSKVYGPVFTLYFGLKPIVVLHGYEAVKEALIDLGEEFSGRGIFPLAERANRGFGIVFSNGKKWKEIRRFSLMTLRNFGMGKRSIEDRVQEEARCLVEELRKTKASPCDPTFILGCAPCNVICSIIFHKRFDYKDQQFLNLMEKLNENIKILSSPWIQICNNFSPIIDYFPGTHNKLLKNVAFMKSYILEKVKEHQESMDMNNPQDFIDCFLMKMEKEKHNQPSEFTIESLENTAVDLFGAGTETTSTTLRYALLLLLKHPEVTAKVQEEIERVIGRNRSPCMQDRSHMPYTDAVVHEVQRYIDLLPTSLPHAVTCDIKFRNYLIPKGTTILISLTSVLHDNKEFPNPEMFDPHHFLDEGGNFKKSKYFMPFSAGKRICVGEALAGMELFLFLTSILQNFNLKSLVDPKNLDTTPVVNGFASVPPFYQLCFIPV
Experimental: as §1

CYP2D6 = CYP2D6 (Homo sapiens (Human), UniProt P10635); assay: Inhibition of human liver microsomal cytochrome P450 isoenzyme CYP2D6; type: in vitro ADME; details: human liver microsomes
Sequence of CYP2D6 (P10635 whole entry): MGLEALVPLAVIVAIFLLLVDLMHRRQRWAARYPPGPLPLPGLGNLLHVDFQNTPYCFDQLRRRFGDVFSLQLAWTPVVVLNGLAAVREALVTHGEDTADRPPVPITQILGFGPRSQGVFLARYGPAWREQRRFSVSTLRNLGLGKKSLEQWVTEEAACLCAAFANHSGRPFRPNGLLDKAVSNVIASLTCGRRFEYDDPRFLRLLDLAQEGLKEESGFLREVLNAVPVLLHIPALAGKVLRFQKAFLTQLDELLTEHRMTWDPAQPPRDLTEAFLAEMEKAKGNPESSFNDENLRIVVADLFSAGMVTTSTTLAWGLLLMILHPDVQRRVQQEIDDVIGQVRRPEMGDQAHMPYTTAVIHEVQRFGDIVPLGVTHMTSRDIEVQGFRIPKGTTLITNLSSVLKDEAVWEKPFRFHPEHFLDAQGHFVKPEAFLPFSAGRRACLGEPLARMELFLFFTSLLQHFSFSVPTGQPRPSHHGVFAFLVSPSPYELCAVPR
Experimental: as §1

THRβ = THRβ (Homo sapiens, UniProt P10828); assay: GeneBLAzer TR beta-UAS-bla HEK 293T cell-based agonist assay; details: for THRß maximum agnostic capability: TR beta-UAS-bla HEK 293T cells, T3 as positive control
Sequence of THRβ (P10828 whole entry, looked up, the tested form may be a part): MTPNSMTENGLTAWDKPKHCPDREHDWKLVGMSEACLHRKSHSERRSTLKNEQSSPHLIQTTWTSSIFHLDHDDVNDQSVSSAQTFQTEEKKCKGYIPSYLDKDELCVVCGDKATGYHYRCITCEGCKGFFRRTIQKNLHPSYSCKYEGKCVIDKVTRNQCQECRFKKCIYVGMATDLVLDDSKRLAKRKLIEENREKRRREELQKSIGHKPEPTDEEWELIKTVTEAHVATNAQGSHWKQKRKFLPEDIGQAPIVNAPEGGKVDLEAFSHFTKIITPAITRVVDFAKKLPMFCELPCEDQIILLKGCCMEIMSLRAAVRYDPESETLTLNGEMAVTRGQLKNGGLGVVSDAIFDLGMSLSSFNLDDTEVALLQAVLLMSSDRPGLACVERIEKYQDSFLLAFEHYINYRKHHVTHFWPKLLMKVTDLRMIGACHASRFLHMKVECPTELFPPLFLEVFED
From the text: The present experiment employs the GeneBLAzer® TR alpha/beta-UAS-bla HEK 293T Cell-based Assay developed by ThermoFisher. The underlying principle is that TR alpha-UAS-bla HEK 293T Cell and TR beta-UAS-bla HEK 293T Cell express B-lactamase, a reporter gene controlled by the upstream UAS sequence. When a compound enters the cell and binds to THR, the receptor binds to the DNA binding region to form a complete GAL4 dimer that utilizes the GAL4-UAS system to activate β-lactamase expression, which then decomposes the substrate CCF4-AM (coumarin). The resulting product, when excited at 409 nm, emits fluorescence at a wavelength of 447 nm. If β-lactamase is not expressed, the product generates fluorescence at a wavelength of 520 nm through FRET under excitation at 409 nm. By detecting the ratio of the two fluorescences (447 nm/520 nm), the binding status of the compound to the protein can be determined, thus allowing the calculation of the EC50 of the compound.
The ECHO liquid handling workstation was used to transfer the compound to a 384-well plate, with 10 gradient concentrations for each compound, 3-fold dilution, and duplicate wells. 1.5×10^4 cells (TR beta-UAS-bla HEK 293T Cell) or 1.0×10^4 cells (TR alpha-UAS-bla HEK 293T Cell) were seeded onto the 384-well plate. HEK 293T-TR beta cells were incubated for 16 hours in a 37° C. incubator, and HEK 293T-TR alpha cells were incubated for 22 hours. The LiveBLAzer™M-FRET B/G (CCF4-AM) substrate was added to the cell plate and incubated for 2 hours at room temperature, shielded from light. The Flexstation 3 instrument was utilized to detect the fluorescence values with the wavelength of 460 nm/530 nm emitted by the product under the excitation at 409 nm. By detecting the ratio of the two fluorescences (460 nm/530 nm), the EC50 of the compound was calculated using Graphpad Prism software. […] The Z-factor (greater than 0.5) is calculated to monitor the stability of each experiment.

[1] = Pharmacokinetic study of oral and intravenous administration in rats; type: in vivo, rat; details: male SD rats; for half-life: read-out: Half-life T1/2 (converted)
Experimental: Pharmacokinetic study of oral and intravenous administration of WX001 in rats
Male SD rats were selected, and given the test compound as detailed in Table 3.
Whole blood was collected for a certain period of time and prepared into plasma. The drug concentration was analyzed by the LC-MS/MS method, and the pharmacokinetic parameters were calculated using Phoenix WinNonlin software (Pharsight, USA).

CYP2C19 = CYP2C19 (Homo sapiens (Human), UniProt P33261); assay: Inhibition of human liver microsomal cytochrome P450 isoenzyme CYP2C19; type: in vitro ADME; details: human liver microsomes
Sequence of CYP2C19 (P33261 whole entry): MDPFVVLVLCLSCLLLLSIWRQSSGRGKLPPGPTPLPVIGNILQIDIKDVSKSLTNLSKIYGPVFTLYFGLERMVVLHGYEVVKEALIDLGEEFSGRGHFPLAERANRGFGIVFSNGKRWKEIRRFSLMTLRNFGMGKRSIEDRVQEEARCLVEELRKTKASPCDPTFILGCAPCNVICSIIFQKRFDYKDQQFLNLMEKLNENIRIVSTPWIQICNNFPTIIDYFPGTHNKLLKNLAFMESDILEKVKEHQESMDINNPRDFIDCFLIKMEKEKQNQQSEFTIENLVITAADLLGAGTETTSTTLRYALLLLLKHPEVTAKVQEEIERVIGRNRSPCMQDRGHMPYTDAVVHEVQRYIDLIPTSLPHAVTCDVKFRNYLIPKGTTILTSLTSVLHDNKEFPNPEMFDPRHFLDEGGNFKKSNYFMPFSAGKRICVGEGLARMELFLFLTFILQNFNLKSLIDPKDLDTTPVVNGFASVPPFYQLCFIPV
Experimental: as §1

CYP3A4 = CYP3A4 (Homo sapiens (Human), UniProt P08684); assay: Inhibition of human liver microsomal cytochrome P450 isoenzyme CYP3A4; type: in vitro ADME; details: human liver microsomes
Sequence of CYP3A4 (P08684 whole entry): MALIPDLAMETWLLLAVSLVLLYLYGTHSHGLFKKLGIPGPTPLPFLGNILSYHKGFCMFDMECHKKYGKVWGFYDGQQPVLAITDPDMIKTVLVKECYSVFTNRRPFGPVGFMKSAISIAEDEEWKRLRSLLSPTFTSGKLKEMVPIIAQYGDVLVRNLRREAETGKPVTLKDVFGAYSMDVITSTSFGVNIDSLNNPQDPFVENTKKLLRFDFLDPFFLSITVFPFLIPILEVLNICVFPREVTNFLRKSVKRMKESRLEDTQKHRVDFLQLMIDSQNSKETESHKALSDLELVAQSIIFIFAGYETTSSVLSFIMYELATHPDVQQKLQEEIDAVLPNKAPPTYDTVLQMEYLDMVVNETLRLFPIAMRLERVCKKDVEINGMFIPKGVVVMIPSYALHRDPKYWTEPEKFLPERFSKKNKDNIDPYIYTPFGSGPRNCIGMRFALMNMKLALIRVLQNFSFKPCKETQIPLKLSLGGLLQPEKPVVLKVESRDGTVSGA
Experimental: as §1

[2] = rat, plasma, 30 mg/kg, oral, 30 mpk

Sequence of THRα (P10827 other isoform, or with tags, fused parts or gaps isoform P10827-2): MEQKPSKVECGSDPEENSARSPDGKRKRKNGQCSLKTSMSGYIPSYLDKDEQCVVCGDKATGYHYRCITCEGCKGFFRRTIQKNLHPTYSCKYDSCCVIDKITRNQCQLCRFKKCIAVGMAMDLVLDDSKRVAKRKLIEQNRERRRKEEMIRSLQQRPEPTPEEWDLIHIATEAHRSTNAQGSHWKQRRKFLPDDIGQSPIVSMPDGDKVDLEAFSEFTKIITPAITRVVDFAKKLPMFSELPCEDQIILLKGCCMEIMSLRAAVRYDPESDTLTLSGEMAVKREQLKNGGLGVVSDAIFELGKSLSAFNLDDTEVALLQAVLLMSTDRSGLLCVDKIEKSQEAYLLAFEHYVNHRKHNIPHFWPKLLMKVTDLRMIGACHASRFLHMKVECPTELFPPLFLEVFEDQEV

Structure (SMILES)	EC50 (THRα) [µM]	THRα maximum agnostic capability (THRα) [%]	inhibitory effect on CYP1A2 (in words) (CYP1A2)	IC50 (CYP2C9) [µM]	inhibition against CYP2C9 (in words) (CYP2C9)	IC50 (CYP2D6) [µM]	inhibitory effect on CYP2D6 (in words) (CYP2D6)	EC50 (THRβ) [µM]	THRß maximum agnostic capability (THRβ) [%]	Area under the plasma concentration-time curve/Dosage DNAUC0-last ([1]; intravenous, 3 mpk) [nM. h/mpk]	Area under the plasma concentration-time curve/Dosage DNAUC0-last ([1]; oral, 30 mpk) [nM. h/mpk]	Vd ([1]; rat, plasma, 3 mg/kg, intravenous, 3 mpk, read-out: Apparent volume of distribution Vdss) [L/kg]	clearance ([1]; rat, plasma, 3 mg/kg, intravenous, 3 mpk, read-out: Clearance CL) [mL/min/kg]	half-life ([1]; rat, plasma, 3 mg/kg, intravenous, 3 mpk) [h]	bioavailability [1, 2] [%]	half-life [1, 2] [h]	IC50 (CYP2C19) [µM]	inhibitory effect on CYP2C19 (in words) (CYP2C19)	inhibitory effect on CYP3A4 (in words) (CYP3A4)	IC50 (CYP3A4; midazolam as probe substrate) [µM]
Cc1cc(NC(=O)c2noc(=O)[nH]2)cc(C)c1Cc1ccc(O)c2c1CCCC2 [WX001]	0.122	24	no inhibitory effects	3.27	moderate inhibition	41.6	no inhibitory effects	0.0394	103	5343	1939	0.411	7.93	1.66	36	1.6	5.09	no inhibitory effects	no inhibitory effects	25.4
Cc1cc(NC(=O)c2noc(=O)[nH]2)cc(C)c1Cc1ccc(O)c(Cc2ccccc2)c1 [WX002]	1	101	–	–	–	–	–	0.0856	99	–	–	–	–	–	–	–	–	–	–	–
Cc1cc(NC(=O)c2noc(=O)[nH]2)cc(C)c1Cc1cc(I)c(O)c2c1CCCC2 [WX005]	0.155	85	–	–	–	–	–	0.0578	96	–	–	–	–	–	–	–	–	–	–	–
Cc1cc(NC(=O)c2noc(=O)[nH]2)cc(C)c1Cc1cc(F)c(O)c2c1CCCC2 [WX006]	0.435	86	–	–	–	–	–	0.105	90	–	–	–	–	–	–	–	–	–	–	–

Source: patent US20240239761A1, “BICYCLIC PHENOL COMPOUNDS AND USE THEREOF” (MEDSHINE DISCOVERY INC., priority 2021, published 2024)
